“Also recorded” adds a separate entry of the source.
Columns and labels:
3T3-LI mature adipocytes = experiment: Oil Red O staining of lipid accumulation in adipocytes; format: cell-based, murine; settings: for number and size / morphology of lipid droplets vs. non-treated control: Oil Red O micrographs, peptides at 100 μM, Day 21, three times per week for three weeks; for reduction of lipid accumulation / lipid contents (in words): murine-based in vitro systems, mature adipocytes; for decrease in degree of lipid accumulation: quantitative Oil Red O analysis, Day 21
Experimental: FIG. 2A-G: Representative photomicrographs showing Oil Red O-stained mature adipocytes treated with peptides at 100 μM (Day 21). H: Quantitative analysis of the lipids accumulated in the adipocytes (Day 21). Control absorbance: 0.526 (Red line). I: Relative cell counts on day 21.
The effects of the minimal short peptides in blocking lipid accumulation in adipocytes were compared with their parent full-length peptide. After generating five different 3 amino acid fragments (KGG, GGR, GRA, RAK, and AKD) from the original ATS peptide (KGGRAKD (SEQ ID NO:1)), each peptide was administered to 3T3-LI pre-adipocytes in five varying concentrations. Peptides were treated to the adipocytes three times per week for three weeks. Oil Red O staining was utilized to assess the lipid contents in mature adipocytes in culture. The morphological characteristics of 3T3-LI mature adipocytes were observed by microscopy. […] Furthermore, the lipids were quantitatively analyzed. […] At the end point, the cell number was almost the same across the treatment groups, meaning that the reduction in lipid accumulation is not a consequence of toxicity of the peptides (FIG. 2I).
The number of viable cells is counted prior to Oil Red O staining using Cell Counting Kit 8 (Dojindo). This cell viability study allows one to determine potential toxicities of the peptides and compensate for cell number variation-causing artifacts. Oil Red O is dissolved in isopropanol at […] to create a working solution. 12 ml of Oil Red O working solution is mixed with 8 ml dH2O and incubated for 10 minutes. This solution is then filtered using a 0.2 μm syringe filter. Adipocytes seeded on 96-well plates are washed with PBS twice. 10% formaldehyde is added for initial fixation and the plates are incubated for at least 30 minutes. The formaldehyde is removed and the cells are once again washed twice, this time with dH2O. 60% isopropanol is added to each well. The plates are incubated for 5 minutes. The isopropanol is removed from the wells and replaced with Oil Red O working solution. The plates are incubated for an additional 10 minutes. The Oil Red O solution is removed and washed four times with dH2O. Lastly, digital micrographs of the lipid droplets in adipocytes are taken using a light microscope. After the staining protocol, all plates are washed three times with 60% isopropanol. Each time, 5 minutes of gentle rocking was used. The Oil Red O is extracted with 100% isopropanol with gentle rocking for 5 minutes. 200 μl isopropanol per well is used as a background to measure absorbance at 492 nm using a BioTek microplate reader.

[1] = tested on: DIO mice, obesity progression model (OPM); experiment: Body weight in pre-obese mice fed high fat diet (obesity progression model, OPM); format: in vivo; settings: for anti-obesity efficacy (body weight): oral administration
Experimental: (§1) FIG. 3A-H: IP Preobese Body Weight. Relative body weight measurements for IP injected pre-obese mice. I-J: Body weight change. Changes in body weight compared using HFD control group as baseline value A1-F1: GTT. Blood glucose levels of peptide groups at endpoint, post-glucose injection (after 16 h fasting). A2-F2: ITT. Blood glucose levels of peptide groups at endpoint, post-insulin injection (after 6 h fasting).
as §1, with “4A-F: SC Pre-obese” for “3A-H: IP Preobese”, “SC” for “IP”, “G-H:” for “I-J:”, “value.” for “value”
(§2) FIG. 7A-F: Oral/Feeding Pre-obese Body Weight. Relative body weight measurements for orally administered pre-obese mice. A1-F1: GTT. Blood glucose levels at endpoint, post-glucose injection (after 16 h fasting). A2-F2: ITT. Blood glucose levels at endpoint, post-insulin injection (after 6 h fasting).
Prior to oral administration, peptides were administered to DIO mice via intraperitoneal (IP) and subcutaneous (SC) injections. This study was divided into two phases:
(§3) In the first phase, peptides were tested on pre-obese mice that were being fed high fat diet (HFD) to induce obesity (obesity progression model, OPM). In the second phase, these peptides were given to mice that had already developed obesity (obesity model, OM). […] As the activity of these three peptides varies depending on the injection route and the disease status, all three peptides, GGR, RAK, and AKD, were tested by oral administration.
Prior to oral administration, GGR, RAK, AKD, full-length ATS, and scrambled RKG peptides were administered to OPM mice via IP and SC injections to further screen an ideal peptide composition. PBS was included as a vehicle group. GGR, RAK, and AKD peptides were discovered to impede body weight gain in OPM mice. GGR and RAK were effective when given IP injections and AKD was effective by SC injections (FIGS. 3, 4).

[2] = tested on: DIO mice, obesity model (OM); experiment: Body weight in mice that had already developed obesity (obesity model, OM); format: in vivo; settings: OM (post-obese) mice
Experimental: as §1, with “5A-F:” for “3A-H:”, “Post-obese” for “Preobese”, “post-obese” for “pre-obese”, “G-H:” for “I-J:”, “value.” for “value”
as §1, with “6A-F: SC Post-obese” for “3A-H: IP Preobese”, “SC” for “IP”, “post-obese” for “pre-obese”, “G-H:” for “I-J:”, “value. A1-D1,F1:” for “value A1-F1:”, “A2-D2,F2:” for “A2-F2:”
as §2, with “8A-F:” for “7A-F:”, “Post-obese” for “Pre-obese”, “post-obese” for “pre-obese”
as §3
The second phase signified the post-obesity stage, where the same methods from phase 1 were used on OM mice.

[3] = tested on: epididymal fat tissues of DIO mice; experiment: Histological analysis of fat pads (adipocyte number and size); format: in vivo
Experimental: FIG. 9. Histological analysis fat pads. An automated system detected and counted adipocytes (yellow line). Adipocyte number and size: average of 3 hpf images from 2 mice (total 6 images/group).
GGR, RAK, and AKD peptides were tested in OPM and OM mice by oral administration. […] In obesity progression, adipocytes increase in both number and size due to escalating lipid accumulation (Parlee, S. D., et al., Methods Enzymol 537, 93-122, (2014)). Using the methods described above, abdominal fat pads of GGR, RAK, AKD, or PBS-treated DIO mice were histologically analyzed. Epididymal fat tissues were harvested from two mice per experimental group. All samples were fixed in 4% paraformaldehyde, H&E-stained, and imaged. At a 10× magnification, adipocyte cell counting was performed on the digital slide images using an automated adipocyte counting macro with the ImageJ software. A default thresholding method was used and [cell] sizing boundaries of 40-40,000 were set. Limitations of the segmentation tool led to some erroneous selections or regions of interest (ROI), which were manually corrected by adding or erasing lines. The number of cells per representative field were then determined using the ROI manager in ImageJ. Two or three high power fields (hpf) per tissue and two tissue samples per group were analyzed to reduce variability. Average cell count for each group was calculated accordingly. Areas of all adipocytes of interest were measured using the ROI measurement tool (ImageJ) and average area per cell was calculated accordingly.
The primary function of adipocytes is to store energy in the form of lipids. The volume of lipid stored in an adipocyte cell increases as the third power of the diameter. Because mature adipocytes are composed of large lipid droplets that are surrounded by very thin cytoplasmic layers, the increase in volume of an adipocyte cell likely indicates increased lipid storage. Thus, smaller adipocyte size/area translates to reduced lipid accumulation.

prohibitin = biological target: T1, prohibitin (Mus musculus, UniProt P67778); experiment: ATS/prohibitin binding by ATS magnetic bead immunoprecipitation and western blot; settings: fractionated proteins from adipocytes incubated with ATS magnetic beads, western blot
T1 construct: Fractionated proteins isolated from adipocytes were incubated with the ATS magnetic beads; endogenous in cells; probably 3T3-L1
T1 sequence (P67778 2-272 limits assumed): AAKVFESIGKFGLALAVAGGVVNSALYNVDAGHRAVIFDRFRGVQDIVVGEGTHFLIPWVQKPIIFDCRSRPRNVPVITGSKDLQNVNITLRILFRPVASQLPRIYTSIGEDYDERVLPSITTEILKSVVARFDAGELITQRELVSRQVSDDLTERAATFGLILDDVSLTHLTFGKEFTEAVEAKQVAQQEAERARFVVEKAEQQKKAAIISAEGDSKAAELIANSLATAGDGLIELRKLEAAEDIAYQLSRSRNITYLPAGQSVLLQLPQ
Source text: FIG. 1A: ATS/prohibitin binding determined by immunoprecipitation and western blot. FIG. 1B: Location and degree of prohibitin expression in pre- or mature adipocytes. PM, plasma membrane; Cyt, Cytoplasm. C: Confocal micrographs showing the location of prohibitin in mature- or pre-adipocytes.
It was confirmed that prohibitin shifts its location to the cell membrane as adipogenesis progresses and ATS binds to prohibition. The ATS/prohibitin binding was verified in pre- or mature adipocytes (Won, Y. W. et al. Nat Mater 13, 1157-1164, (2014)). Fractionated proteins isolated from adipocytes were incubated with the ATS magnetic beads and the protein captured by ATS was identified by western blotting. […] Prohibitin is observed in several intracellular locations at varying expression levels depending on the degree of adipogenesis (Wang, P. et al. Cell Mol Life Sci 61, 2405-2417, (2004); Patel, N. et al. Proceedings of the National Academy of Sciences of the United States of America 107, 2503-2508, (2010)). The degree and location of prohibitin expression in pre- or mature adipocytes was determined. […] Confocal microscopy also verified the prohibitin expression on the cell membrane of mature adipocytes (FIG. 1C). High-level prohibitin expression on the cell membrane of mature adipocytes is important to the ATS/prohibitin interaction.

Substance: GRA
- number and size / morphology of lipid droplets vs. non-treated control (3T3-LI mature adipocytes): moderate differences in the morphology of lipid droplets

Substance: GGR
- number and size / morphology of lipid droplets vs. non-treated control (3T3-LI mature adipocytes): smaller than those in the non-treated control
- reduction of lipid accumulation / lipid contents (in words) (3T3-LI mature adipocytes): able to reduce lipid contents in mature Adipocytes; also recorded: effective in reducing lipid accumulation
- decrease in degree of lipid accumulation (3T3-LI mature adipocytes): approximately 20%
- prevention of body weight gain ([1]; IP injections): positive effects on prevention of body weight gain; also recorded: effective
- prevention of body weight gain ([2]; IP injections): positive effects on prevention of body weight gain
- prevention of body weight gain ([2]; SC injections): effective

Substance: RKG [reference compound]
- prevention of body weight gain ([1]; IP injections): did not show meaningful efficacy over the vehicle group; also recorded: no anti-obese effects; also recorded: no anti-obesity effects
- prevention of body weight gain ([1]; SC injections): no anti-obese effects; also recorded: no anti-obesity effects
- prevention of body weight gain ([2]; IP injections): did not show meaningful efficacy over the vehicle group; also recorded: no anti-obesity effects
- prevention of body weight gain ([2]; SC injections): no anti-obesity effects

Substance: RAK
- activity by histological analysis of the fat pads ([3]; DIO mice): more active than GGR; also recorded: highest efficacy
- average cell count per field ([3]; H&E-stained epididymal fat, 10× magnification, among GGR, RAK, AKD, PBS groups): highest average cell count per field
- average adipocyte area per cell ([3]; H&E-stained epididymal fat, among GGR, RAK, AKD, PBS groups): lowest average adipocyte area per cell
- number and size / morphology of lipid droplets vs. non-treated control (3T3-LI mature adipocytes): smaller than those in the non-treated control
- reduction of lipid accumulation / lipid contents (in words) (3T3-LI mature adipocytes): able to reduce lipid contents in mature Adipocytes; also recorded: effective in reducing lipid accumulation
- decrease in degree of lipid accumulation (3T3-LI mature adipocytes): approximately 20%
- prevention of body weight gain ([1]; IP injections): positive effects on prevention of body weight gain; also recorded: effective
- anti-obesity efficacy (body weight) [1]: efficacious over GGR; also recorded: has anti-obesity efficacy in both models
- prevention of body weight gain ([2]; IP injections): positive effects on prevention of body weight gain
- prevention of body weight gain ([2]; SC injections): effective
- anti-obesity efficacy (body weight) ([2]; oral administration): has anti-obesity efficacy in both models

Substance: KGGRAKD (SEQ ID NO:1) [ATS, parent full-length peptide, reference compound]
- number and size / morphology of lipid droplets vs. non-treated control (3T3-LI mature adipocytes): smaller than those in the non-treated control
- ATS/prohibitin binding (prohibitin): specifically binds to prohibitin

Substance: KGG
- number and size / morphology of lipid droplets vs. non-treated control (3T3-LI mature adipocytes): moderate differences in the morphology of lipid droplets

Substance: AKD
- number and size / morphology of lipid droplets vs. non-treated control (3T3-LI mature adipocytes): smaller than those in the non-treated control
- reduction of lipid accumulation / lipid contents (in words) (3T3-LI mature adipocytes): able to reduce lipid contents in mature Adipocytes; also recorded: effective in reducing lipid accumulation
- decrease in degree of lipid accumulation (3T3-LI mature adipocytes): approximately 20%
- prevention of body weight gain ([1]; SC injections): best working peptide; also recorded: effective
- anti-obesity efficacy (body weight) [1]: efficacious over GGR
